Test results published in patent US11820766B2, “Monoacylglycerol lipase modulators” (Janssen Pharmaceutica NV, priority 2018, dated 2023).

These compounds were tested against T1, human MGL from HeLa cells (Homo sapiens, UniProt Q99685) (assay: In vitro MGL activity assay: [glycerol-1,3-3H]-oleyl glycerol cleavage by MGL from HeLa cells). Settings: 300 nM [Glycerol-1,3-3H]-oleyl glycerol, one hour.
T1 construct: combining endogenously expressed MGL from HeLa cells with test compounds; endogenous in cells; host or cells: HeLa cells / cell homogenates
T1 sequence (Q99685 1-303): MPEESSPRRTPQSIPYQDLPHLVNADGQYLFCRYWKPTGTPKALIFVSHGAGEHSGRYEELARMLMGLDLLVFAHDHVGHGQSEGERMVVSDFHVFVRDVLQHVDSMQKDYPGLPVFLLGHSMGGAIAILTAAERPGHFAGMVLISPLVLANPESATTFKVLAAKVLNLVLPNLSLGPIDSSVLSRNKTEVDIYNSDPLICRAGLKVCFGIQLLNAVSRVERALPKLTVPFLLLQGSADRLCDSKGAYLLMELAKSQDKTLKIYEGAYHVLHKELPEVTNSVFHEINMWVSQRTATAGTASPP
Assay type: biochemical
Text: MGL is the predominant hydrolase in HeLa cells/cell homogenates.

| SMILES | IC50 [nM] |
| --- | --- |
| C[C@H]1c2nn(C)c(-c3cc(F)c(F)c(F)c3)c2CCN1C(=O)c1cnc2n1CCC2 [Example 559, 6,7-Dihydro-5H-pyrrolo[1,2-a]imidazol-3-yl-[(7S)-2,7-dimethyl-3-(3,4,5-trifluorophenyl)-5,7-dihydro-4H-pyrazolo[3,4-c]pyridin-6-yl]methanone] | 294 |
| C[C@H]1c2nn(C)c(-c3cc(F)c(F)c(F)c3)c2CCN1C(=O)c1cnc2n1CCCC2 [Example 560, [(7S)-2,7-Dimethyl-3-(3,4,5-trifluorophenyl)-5,7-dihydro-4H-pyrazolo[3,4-c]pyridin-6-yl]-(5,6,7,8-tetrahydroimidazo[1,2-a]pyridin-3-yl)methanone] | 120 |
| C[C@H]1c2nn(C)c(-c3cc(F)c(F)c(F)c3)c2CCN1C(=O)c1c(C(F)F)nc2n1CCCC2 [Example 561, [2-(Difluoromethyl)-5,6,7,8-tetrahydroimidazo[1,2-a]pyridin-3-yl]-[(7S)-2,7-dimethyl-3-(3,4,5-trifluorophenyl)-5,7-dihydro-4H-pyrazolo[3,4-c]pyridin-6-yl]methanone] | 326 |
| C[C@H]1c2nn(C)c(-c3cc(F)c(F)c(F)c3)c2CCN1C(=O)c1cnc2n1CCOC2 [Example 562, 6,8-Dihydro-5H-imidazo[2,1-c][1,4]oxazin-3-yl-[(7S)-2,7-dimethyl-3-(3,4,5-trifluorophenyl)-5,7-dihydro-4H-pyrazolo[3,4-c]pyridin-6-yl]methanone] | 717 |
| C[C@H]1c2nn(C)c(-c3cc(F)c(F)c(F)c3)c2CCN1C(=O)c1cnc2c(c1)CCCO2 [Example 563, 3,4-Dihydro-2H-pyrano[2,3-b]pyridin-6-yl-[(7S)-2,7-dimethyl-3-(3,4,5-trifluorophenyl)-5,7-dihydro-4H-pyrazolo[3,4-c]pyridin-6-yl]methanone] | 329 |
| C[C@H]1c2nn(C)c(-c3cc(F)c(F)c(F)c3)c2CCN1C(=O)c1ccnc2c1CCOC2 [Example 565, 6,8-Dihydro-5H-pyrano[3,4-b]pyridin-4-yl-[(7S)-2,7-dimethyl-3-(3,4,5-trifluorophenyl)-5,7-dihydro-4H-pyrazolo[3,4-c]pyridin-6-yl]methanone] | 108 |
| C[C@H]1c2nn(C)c(-c3cc(F)c(F)c(F)c3)c2CCN1C(=O)c1ccc2c(n1)COCC2 [Example 566, 6,8-Dihydro-5H-pyrano[3,4-b]pyridin-2-yl-[(7S)-2,7-dimethyl-3-(3,4,5-trifluorophenyl)-5,7-dihydro-4H-pyrazolo[3,4-c]pyridin-6-yl]methanone] | 533 |
| C[C@H]1c2nn(C)c(-c3cc(F)c(F)c(F)c3)c2CCN1C(=O)c1cnc2c(c1)COCC2 [Example 567, 7,8-Dihydro-5H-pyrano[4,3-b]pyridin-3-yl-[(7S)-2,7-dimethyl-3-(3,4,5-trifluorophenyl)-5,7-dihydro-4H-pyrazolo[3,4-c]pyridin-6-yl]methanone] | 1050 |
| C[C@H]1c2nn(C)c(-c3cc(F)c(F)c(F)c3)c2CCN1C(=O)c1cnc2c(c1)OCCO2 [Example 570, 2,3-Dihydro-[1,4]dioxino[2,3-b]pyridin-7-yl-[(7S)-2,7-dimethyl-3-(3,4,5-trifluorophenyl)-5,7-dihydro-4H-pyrazolo[3,4-c]pyridin-6-yl]methanone] | 136 |
| C[C@H]1c2nn(C)c(-c3cc(F)c(F)c(F)c3)c2CCN1C(=O)c1cc2c(cn1)OCCC2 [Example 573, 3,4-Dihydro-2H-pyrano[2,3-c]pyridin-6-yl-[(7S)-2,7-dimethyl-3-(3,4,5-trifluorophenyl)-5,7-dihydro-4H-pyrazolo[3,4-c]pyridin-6-yl]methanone] | 242 |
| C[C@H]1c2nn(C)c(-c3cc(F)c(F)c(F)c3)c2CCN1C(=O)c1cccc2c1CCNC2 [Example 574, [(7S)-2,7-Dimethyl-3-(3,4,5-trifluorophenyl)-5,7-dihydro-4H-pyrazolo[3,4-c]pyridin-6-yl]-(1,2,3,4-tetrahydroisoquinolin-5-yl)methanone] | 330 |
| C[C@H]1c2nn(C)c(-c3cc(F)c(F)c(F)c3)c2CCN1C(=O)c1cccc2c1CNCC2 [Example 575, [(7S)-2,7-Dimethyl-3-(3,4,5-trifluorophenyl)-5,7-dihydro-4H-pyrazolo[3,4-c]pyridin-6-yl]-(1,2,3,4-tetrahydroisoquinolin-8-yl)methanone] | 72.7 |
| C[C@H]1c2nn(C)c(-c3cc(F)c(F)c(F)c3)c2CCN1C(=O)c1cccc2oc(=O)[nH]c12 [Example 584, 4-[(7S)-2,7-Dimethyl-3-(3,4,5-trifluorophenyl)-5,7-dihydro-4H-pyrazolo[3,4-c]pyridine-6-carbonyl]-3H-1,3-benzoxazol-2-one] | 300 |
| C[C@H]1c2nn(C)c(-c3cc(F)c(F)c(F)c3)c2CCN1C(=O)c1ccc2oc(=O)[nH]c2c1 [Example 586, 5-[(7S)-2,7-Dimethyl-3-(3,4,5-trifluorophenyl)-5,7-dihydro-4H-pyrazolo[3,4-c]pyridine-6-carbonyl]-3H-1,3-benzoxazol-2-one] | 1000 |

The next compounds have a lower IC50 than those just listed; values first:

| IC50 [nM] | SMILES |
| --- | --- |
| 58.7 | C[C@H]1c2nn(C)c(-c3cc(F)c(F)c(F)c3)c2CCN1C(=O)c1ccnc2c1CCCO2 [Example 564, 3,4-Dihydro-2H-pyrano[2,3-b]pyridin-5-yl-[(7S)-2,7-dimethyl-3-(3,4,5-trifluorophenyl)-5,7-dihydro-4H-pyrazolo[3,4-c]pyridin-6-yl]methanone] |
| 9.68 | C[C@H]1c2nn(C)c(-c3cc(F)c(F)c(F)c3)c2CCN1C(=O)c1ccnc2c1OCCC2 [Example 568, 3,4-Dihydro-2H-pyrano[3,2-b]pyridin-8-yl-[(7S)-2,7-dimethyl-3-(3,4,5-trifluorophenyl)-5,7-dihydro-4H-pyrazolo[3,4-c]pyridin-6-yl]methanone] |
| 28.7 | C[C@H]1c2nn(C)c(-c3cc(F)c(F)c(F)c3)c2CCN1C(=O)c1ccnc2c1OCCO2 [Example 569, 2,3-Dihydro-[1,4]dioxino[2,3-b]pyridin-8-yl-[(7S)-2,7-dimethyl-3-(3,4,5-trifluorophenyl)-5,7-dihydro-4H-pyrazolo[3,4-c]pyridin-6-yl]methanone] |
| 12.7 | C[C@H]1c2nn(C)c(-c3cc(F)c(F)c(F)c3)c2CCN1C(=O)c1cnc2c(c1)OCCN2 [Example 571, 3,4-Dihydro-2H-pyrido[3,2-b][1,4]oxazin-7-yl-[(7S)-2,7-dimethyl-3-(3,4,5-trifluorophenyl)-5,7-dihydro-4H-pyrazolo[3,4-c]pyridin-6-yl]methanone] |
| 51.9 | C[C@H]1c2nn(C)c(-c3cc(F)c(F)c(F)c3)c2CCN1C(=O)c1cnc2c(c1)OCCN2C [Example 572, [(7S)-2,7-Dimethyl-3-(3,4,5-trifluorophenyl)-5,7-dihydro-4H-pyrazolo[3,4-c]pyridin-6-yl]-(4-methyl-2,3-dihydropyrido[3,2-b][1,4]oxazin-7-yl)methanone] |
| 18.9 | C[C@H]1c2nn(C)c(-c3cc(F)c(F)c(F)c3)c2CCN1C(=O)c1cccc2c1CCOC2 [Example 576, [(7S)-2,7-Dimethyl-3-(3,4,5-trifluorophenyl)-5,7-dihydro-4H-pyrazolo[3,4-c]pyridin-6-yl]-isochroman-5-yl-methanone] |
| 32.2 | C[C@H]1c2nn(C)c(-c3cc(F)c(F)c(F)c3)c2CCN1C(=O)c1ccc2c(c1)COCC2 [Example 577, [(7S)-2,7-Dimethyl-3-(3,4,5-trifluorophenyl)-5,7-dihydro-4H-pyrazolo[3,4-c]pyridin-6-yl]-isochroman-7-yl-methanone] |
| 27.4 | C[C@H]1c2nn(C)c(-c3cc(F)c(F)c(F)c3)c2CCN1C(=O)c1ccc2c(c1)CCOC2 [Example 578, [(7S)-2,7-Dimethyl-3-(3,4,5-trifluorophenyl)-5,7-dihydro-4H-pyrazolo[3,4-c]pyridin-6-yl]-isochroman-6-yl-methanone] |
| 8.18 | C[C@H]1c2nn(C)c(-c3cc(F)c(F)c(F)c3)c2CCN1C(=O)c1cccc2c1COCC2 [Example 579, [(7S)-2,7-Dimethyl-3-(3,4,5-trifluorophenyl)-5,7-dihydro-4H-pyrazolo[3,4-c]pyridin-6-yl]-isochroman-8-yl-methanone] |
| 19.6 | C[C@H]1c2nn(C)c(-c3cc(F)c(F)c(F)c3)c2CCN1C(=O)c1ccc2c(c1)CCCO2 [Example 580, Chroman-6-yl-[(7S)-2,7-dimethyl-3-(3,4,5-trifluorophenyl)-5,7-dihydro-4H-pyrazolo[3,4-c]pyridin-6-yl]methanone] |
| 15.6 | C[C@H]1c2nn(C)c(-c3cc(F)c(F)c(F)c3)c2CCN1C(=O)c1cccc2c1CCCO2 [Example 581, Chroman-5-yl-[(7S)-2,7-dimethyl-3-(3,4,5-trifluorophenyl)-5,7-dihydro-4H-pyrazolo[3,4-c]pyridin-6-yl]methanone] |
| 7.52 | C[C@H]1c2nn(C)c(-c3cc(F)c(F)c(F)c3)c2CCN1C(=O)c1ccc2c(c1)OCCC2 [Example 582, Chroman-7-yl-[(7S)-2,7-dimethyl-3-(3,4,5-trifluorophenyl)-5,7-dihydro-4H-pyrazolo[3,4-c]pyridin-6-yl]methanone] |
| 1.42 | C[C@H]1c2nn(C)c(-c3cc(F)c(F)c(F)c3)c2CCN1C(=O)c1cccc2c1OCCC2 [Example 583, Chroman-8-yl-[(7S)-2,7-dimethyl-3-(3,4,5-trifluorophenyl)-5,7-dihydro-4H-pyrazolo[3,4-c]pyridin-6-yl]methanone] |
| 25.4 | C[C@H]1c2nn(C)c(-c3cc(F)c(F)c(F)c3)c2CCN1C(=O)c1cccc2oc(=O)n(C)c12 [Example 585, 4-[(7S)-2,7-Dimethyl-3-(3,4,5-trifluorophenyl)-5,7-dihydro-4H-pyrazolo[3,4-c]pyridine-6-carbonyl]-3-methyl-1,3-benzoxazol-2-one] |
